Experimental data taken from article PMC11372839, “Unraveling the Potential of Vitamin B3-Derived Salts with a Salicylate Anion as Dermal Active Agents for Acne Treatment” (Molecular Pharmaceutics, 2024).
Read-outs that look alike come from different tables or passages of the source.

Legend:
[1] = Octanol–water partition coefficient, shake-flask method (OECD Test No. 107); type: physicochemical
Description: The octanol–water partition coefficients (KOW) of the synthesized products were estimated by the shake-flask method according to the OECD Test No. 107 guidelines (Partition Coefficient n-Octanol/Water: Shake-Flask Method). Measurements were performed using mutually saturated distilled water and 1-octanol in a glass vial containing a magnetic stir bar. First, the synthesized products were dissolved in distilled water (or 1-octanol) at a chosen concentration (0.01 mol per 1 L of octanol or water), and then proper amounts of the second solvent (octanol or water) were added. Subsequently, two duplicate runs were carried out with different solvent ratios: 4 mL of 1-octanol and 2 mL of water (2:1), 4 mL of 1-octanol and 4 mL of water (1:1), and 4 mL of 1-octanol and 8 mL of water ([…]). All vials were shaken at a constant temperature of 25 °C. After 24 h, all samples were centrifuged and the aqueous and octanolic phases were collected with a syringe. The concentrations of compounds in water were determined spectrophotometrically using a Rayleigh UV-1601 spectrophotometer (Beijing Beifen-Ruili Analytical, China) based on calibration curves made previously (at λmax = 262 nm) vs concentration for each substance. Two repetitions of each measurement were performed in a specific solvent ratio (1:1, 1:2, and 2:1). Finally, the log KOW was calculated as the average of six results collected for each compound.
The outermost layer of the skin (stratum corneum) contains around […] water, a relatively low amount compared to the rest of the human body. Given the hydrophobic nature of 1-octanol, it can be used as a simplified model for the stratum corneum.[50] The octanol–water partition coefficient (KOW) value represents the proportion between the concentrations of a substance in both liquid phases of a system composed of water and 1-octanol. […] The log KOW values are given in Figure 6 (exact values are provided in Table S4, Supporting Information).

Solubility in PBS = conditions: for Solubility in PBS, Class: Pharmacopeia solubility class, PBS pH 7.4, 25 °C
Description: The solubility in PBS solution was determined by placing 1 g (±0.0001) of tested compound in a round-bottom flask and adding specific parts of the PBS solution in portions until full dissolution. The samples were vigorously stirred for at least 5 min before the addition of the next portion of PBS, and the systems were thermostated at 25 °C. Three repetitions of the measurement were performed for each of the compounds.
Most studies on the solubility of novel APIs are carried out with pure water, aqueous PBS solutions were much more preferred due to their higher similarity to intra- and intercellular media in epidermis, while envisaging their use in transdermal delivery and skin care applications.[60] […] The collected data are presented in Figure 8 (as well as in Table S6 in the Supporting Information).

[2] = Contact angle of aqueous solutions, sessile drop method on paraffin; type: physicochemical; conditions: aqueous solution, 25 °C
Description: The contact angle (CA) measurements were carried out using a DSA100S analyzer (Krüss, Germany, accuracy ±0.1°), at 25 °C. The determination of the contact angle was based on the sessile drop method, i.e., drops of the analyzed solution were deposited on a solid surface (paraffin). The images of the drops were taken with a CCD camera, digitized, and evaluated using Young–Laplace fitting. The CA was determined as the slope of the tangent line at the contact point between the 3 phases (solution, paraffin surface, and air).
In the case of seborrheic skin, which occurs among many people affected by acne, the epidermis is covered by a hydrophobic lipid layer, which impedes the penetration of active substances, especially those that are well soluble in water. In addition, ensuring proper drug absorption through the skin can also reduce the risk of side effects and increase the effectiveness of therapy.[72] The addition of surfactants, which improve the wettability of hydrophobic surfaces, can be a solution to this problem.[73],[74] […] Wettability analyses of aqueous solutions of the new APIs were carried out on paraffin, whose hydrophobicity is similar to that of the human skin.[75] Experiments were performed at concentrations corresponding to common NA and SAL contents in commercial formulations (0.25–1.00%).[67],[76],[77] Due to low solubilities of 5–7, tests for these salts were performed at concentrations of 0.25, 0.03, and 0.01%, respectively (please see Figure S43 in the Supporting Information).

Artemia franciscana = test: Ecotoxicity toward aquatic life, Artoxkit M immobilization test; type: in vivo; conditions: for EC50: Artemia franciscana; for Class: acute toxicity rating scale by Fish and Wildlife Service
Description: To determine the EC50 parameter for compounds, tests were carried out on marine crustaceans—Artemia franciscana (A. franciscana). The methodology proposed in the Artoxkit M test (MicroBioTests Inc., Gent, Belgium) was developed according to the ASTM E1440-91 standard.
The hatching process was started first. For this purpose, 50 mg of cysts was transferred to the Petri dishes attached to the Artoxkit M set, which were then immersed in 10 mL of artificial seawater with a salinity of 35‰ (a medium for the development of the tested organisms, as well as a solvent for preparing solutions of the tested compounds) and placed at a temperature of 25 °C, with access to light (6000–10,000 lux) for 30 h. Then, 2 h before placing them on the Artoxkit M plates, 20 mg of spirulina was added to cultured artemias. In addition, 1 h before the analysis, the used seawater was oxygenated by passing a stream of air through the solution. To each of the four cells in a given row of a plate from the Artoxkit M kit, 1 mL of solution at the specified concentrations (or the appropriate medium in the case of a control) were introduced. In the first column of cells (a control sample and five selected concentrations), no less than 30 artemias were placed from previously prepared Petri dishes. Then, from the first cell in the first column, artemias were collected at the selected concentration and added to the next three cells in the selected row, 10 organisms per cell. After the organisms were introduced into the appropriate cells, the plates were covered with Parafilm and then closed with a plastic cap. The prepared kit was incubated at 25 °C and protected from light. Number of motionless organisms were counted after 24 and 48 h. Immobilization was then calculated (eq 1) in relation to the number of organisms at the start of the test: [drawing 1] 1
Next, the dependence between the effect and concentration of the tested compounds was plotted, and on this basis, an EC50 value was determined.

Cutibacterium acnes = test: MIC and MBC determination, microdilution method; type: cell-based; conditions: for MIC / MBC: Cutibacterium acnes; for MIC: 48 h, read-out: MIC, C. acnes; for MBC: read-out: MBC, C. acnes
Description: (§1) The antimicrobial activities of the compounds were tested against clinical strains of an aerobic Gram-negative bacterium—Pseudomonas aeruginosa (P. aeruginosa), facultative anaerobic Gram-positive bacteria—Staphylococcus aureus (S. aureus) and Staphylococcus epidermidis (S. epidermidis), anaerobic Gram-positive bacterium—Cutibacterium acnes (C. acnes), and yeast-like fungus—Candida albicans (C. albicans).
(§2) Aerobic and facultative anaerobic bacteria cultures were grown in Brain Heart Infusion broth (BHI, bioMerieux, France) at 35 °C ± 1 °C for 18 h, C. acnes cultures were grown in thioglycolate broth with resazurin (TGB, bioMerieux, France) at 35 ± 1 °C for 48 h, and yeast cultures were grown in Sabouraud dextrose broth (SDB, Merck, Germany) at 35 ± 1 °C for 24 h. After incubation, each culture was diluted in a suitable liquid medium: P. aeruginosa, S. aureus, and S. epidermidis—Mueller–Hinton broth (MHB; Oxoid, UK); C. acnes—TGB; and C. albicans—SDB, to obtain a final suspension containing about 10^6 CFU/mL.
(§3) The microdilution method was employed to determine the compounds’ MIC (Minimal Inhibitory Concentration) and MBC/MFC (Minimal Bactericidal Concentration/Minimal Fungicidal Concentration) against the tested bacterial and fungal strains.
(§4) The compounds were serially diluted (2-fold) in the respective media (P. aeruginosa, S. aureus, and S. epidermidis—MHB, C. acnes—TGB, and C. albicans—SDB in 96-well plates), and the microbial suspensions were added. The compounds were tested in the final concentration range of 4 096 to 0.125 μg/mL, and the final microbial inoculum was approximately 5 ×10^5 CFU/mL. The tests were incubated at 35 °C ± 1 °C for 18 h (P. aeruginosa, S. aureus, and S. epidermidis) or 24 h (C. albicans) or 48 h (C. acnes). C. acnes was incubated in an anaerobic atmosphere using a GENbag anaer (bioMerieux, France). Media (without the strains) added to the different concentrations of tested compounds and media inoculated with microbial suspension were used as a negative control and growth control, respectively.
(§5) The MIC was defined as the lowest concentration at which visible growth was inhibited. MBC and MFC concentrations were determined as an extension of the MIC test. […] The plates were incubated at 35 ± 1 °C for 18–72 h. C. acnes was incubated in an anaerobic atmosphere. The MBC/MFC was defined as the lowest concentration at which no growth was observed. All tests were performed in duplicate.

Pseudomonas aeruginosa = test: MIC and MBC determination, microdilution method; type: cell-based; conditions: for MIC: 18 h, read-out: MIC, P. aeruginosa; for MBC: read-out: MBC, P. aeruginosa
Description: as §1, §2, §3, §4, §5

Staphylococcus aureus = test: MIC and MBC determination, microdilution method; type: cell-based; conditions: for MIC: 18 h, read-out: MIC, S. aureus; for MBC: read-out: MBC, S. aureus
Description: as §1, §2, §3, §4, §5

[3] = test system: Staphylococcus epidermidis; test: MIC and MBC determination, microdilution method;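 as to all read-outs here: column refers to Staphylococcus epidermidis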; type: cell-based; conditions: for MIC: 18 h, read-out: MIC, S. epidermidis; for MBC: read-out: MBC, S. epidermidis
Description: as §1, §2, §3, §4, §5

Candida albicans = test: MIC and MFC determination, microdilution method; type: cell-based; conditions: for MIC: 24 h, read-out: MIC, C. albicans; for MFC: read-out: MFC, C. albicans
Description: as §1, §2, §3, §4, §5

[4] = parameters: method as in doi:10.1080/10826076.2015.1057642, PMID 22469554, PMID 31982561; conditions: frequently used topical acne agents; cited from earlier work
[5] = test system: cyclooxygenase-2 (PDB ID: 1CX2); test: Molecular docking (AutoDock4); conditions: from docking IC50 values
Description: Docking studies were performed using the AutoDock4 program in AutoDockTools 1.5.7.[28] The structures for ligands (reference substances and N-alkylnicotinamide cations) were optimized for energy minimization using the MMFF94 force field in Avogadro 1.2.0 with the steepest descent algorithm and subsequently converted to a PDBQT format using OpenBabelGUI. The three-dimensional structure of target cyclooxygenase-2 (Protein Data Bank ID: 1CX2) was retrieved from Protein Data Bank (http://www.pdb.org) with a resolution of 3.00 Å. The protein molecule 1CX2 was prepared using AutoDockTools version 1.5.7. The preparation process involved checking for missing atoms, repairing any missing atoms, adding polar hydrogens and Kollman charges, and distributing charges over all of the atoms on residues. All cocrystallized compounds present in the 1CX2 structure (including water molecules and the ligand) were removed prior to the calculations. […] The interaction between the ligand and receptor and hydrogen bond lengths were analyzed using AutoDockTools and PLIP (Protein Ligand Interaction Profiler) developed by Biotechnology Center TU Dresden (BIOTEC).

[6] = toxicity range of EC50, read-out: Range
[7] = volume of PBS (pH 7.4) to dissolve 1 g, 25 °C
[8] = shake-flask, 25 °C, 24 h, average of six results, read-out: Octanol-water partition coefficient (log Kow)
[9] = immobilization, motionless organisms counted after 24 and 48 h, 25 °C, read-out: EC50

Row | Structure (SMILES) | Contact angle ([2]; concentration 0.25%) [°] | Contact angle ([2]; concentration 0.50%) [°] | Contact angle ([2]; concentration 1.00%) [°] | EC50 (Artemia franciscana; [6]) [µg/mL] | Class (Artemia franciscana) | Solubility in PBS, Class (Solubility in PBS) | Solubility in PBS, PBS [ml] (Solubility in PBS; [7]) [mL] | MIC (Pseudomonas aeruginosa) [µg/mL] | MIC (Staphylococcus aureus) [µg/mL] | MBC (Staphylococcus aureus) [µg/mL] | MIC [3] [µg/mL] | MBC [3] [µg/mL] | MIC (Candida albicans) [µg/mL] | logP at 24 h [1, 8] | also measured
1 | NC(=O)c1cccnc1 [NA, nicotinamide, reference compound] | 112.7 | 110.7 | 110.6 | > 1000 | Relatively Harmless (>1000) |  |  |  |  |  |  |  |  |  | logP at 24 h [1]: -0.66; Solubility in PBS, PBS [ml] (Solubility in PBS; pH 7.4): < 1 mL
2 | NC(=O)c1cccnc1.O=C(O)c1ccccc1O [[NA][SAL], reference compound] | 110.5 | 108.3 | 99.9 |  | Practically Nontoxic (100-1000) | Sparingly Soluble (30-100) | 30 to 100 | 2050 | 2050 | 2050 | 2050 | 2050 | 2050 |  | Contact angle ([2]; concentration 1.00%, listed as cocrystal): 100 °; MBC, C. acnes (Cutibacterium acnes; clinical strain, anaerobic, tested 4 096 to 0.125 μg/mL, b = out of range): did not show bactericidal activity; EC50 (Artemia franciscana): 565 µg/mL; EC50 (Artemia franciscana; read-out: Range): 100 to 1000 µg/mL
3 | O=C(O)CCCCCCCC(=O)O [azelaic acid] |  |  |  |  |  |  |  |  |  |  |  |  |  |  | log KOW [4]: 1.42
4 | CC[n+]1cccc(C(N)=O)c1.O=C([O-])c1ccccc1O [compound 1] | 112.1 | 110.3 | 109.7 | > 1000 | Relatively Harmless (>1000) | Very Soluble (<1) | < 1 |  | 1020 |  | 4100 |  |  | -1.15 | 
5 | CCCC[n+]1cccc(C(N)=O)c1.O=C([O-])c1ccccc1O [compound 2] | 102.7 | 104.3 | 103.9 | > 1000 | Relatively Harmless (>1000) | Very Soluble (<1) | < 1 |  | 1020 |  | 2050 |  |  | -0.7 | 
6 | CCCCCCCCCCCC[n+]1cccc(C(N)=O)c1.O=C([O-])c1ccccc1O [compound 6] |  |  |  | 10 to 100 | Slightly Toxic (10-100) | Very Slightly Soluble (1000-10 000) |  | 256 | 8 | 8 | 256 | 256 | 256 | 0.6 | MIC (Cutibacterium acnes): 64 µg/mL; MBC (Cutibacterium acnes): 64 µg/mL; MBC (Pseudomonas aeruginosa): 256 µg/mL; MFC (Candida albicans): 256 µg/mL; times more potent than NA itself [5]: 125 times; EC50 (Artemia franciscana; [9]): 89.7 µg/mL
7 | CCCCCCCCCCCCCC[n+]1cccc(C(N)=O)c1.O=C([O-])c1ccccc1O [compound 7] |  |  |  | 100 to 1000 | Practically Nontoxic (100-1000) | Very Slightly Soluble (1000-10 000) |  | 64 | 0.5 | 0.5 | 4 | 4 | 16 | 1.34 | MIC (Cutibacterium acnes): 4 µg/mL; MBC (Cutibacterium acnes): 4 µg/mL; MBC (Pseudomonas aeruginosa): 64 µg/mL; MFC (Candida albicans): 16 µg/mL; EC50 (Artemia franciscana; [9]): 155 µg/mL
